Here are results for four molecules from US20160340656A1, “PEPTIDES DERIVED FROM GSE 24.2 FOR TREATING DISEASES CAUSED BY OXIDATIVE STRESS AND DAMAGE TO DNA” (CONSEJO SUPERIOR DE INVESTIGACIONES CIENTÍFICAS (CSIC), priority 2013, published 2016).

The subject of experiment [1] is AT2078 cells of patients with ataxia telangiectasia. Briefly: Damage to DNA in AT2078 cells: histone H2AX Ser139 foci after expression of GSE4 or SGSE4. It is filed as cell-based, human. The conditions noted are these: 200 cells. As for the experimental part: FIG. 14. Determination of damage to DNA in AT cells after transfecting peptides GSE4 and SGSE4: AT2078 AT cells were infected with a lentiviral vector expressing GSE4, SGSE4 or a GFP empty vector and 24 hours later were fixed for processing and hybridised with an antibody against phosphorylated histone H2AX (Ser139). Control C-1787 cells were used as the negative control. Next they were hybridised with a fluorescein-labelled antibody and were stained with DAPI to locate the nuclei.
As the peptide denominated GSE4 was the smallest sized of the peptides with ability to inhibit damage to DNA, we studied if another peptide with a similar sequence localised in the sequence of peptide GSE24.2 had the same activity or if that activity was specific to GSE4. Peptide SGSE4 (SEQ ID No. 15) is similar to GSE4 in sequence (amino acids LDPK/LDKP that constitute consensus sequences for pseudouridine synthases) and size and is found in the TRUBII domain of dyskerin. Cell lines AT2078 of patients with ataxia telangiectasia were used for this test. Cell line C-1787 was used as the control cell line. The cells were infected with the bicistronic lentiviral vector pCMV-GFP-GSE4, SGSE4 or GFP. After 48 hours of infection the cells were fixed with formaldehyde and then permeabilized by treating them with Triton X-100. The damage to DNA was estimated by studying the signal after hybridisation of the cells with an antibody against histone H2AX Ser139 and subsequent hybridisation with an antibody bound to fluorescein. The number of foci with stain for histone H2AX per nucleus was determined by confocal microscopy in a total of 200 cells and the data represented as a percentage of cells with a specific number of foci.

The subject of experiment [2] is promoter of c-myc in 293T cells. Briefly: c-myc promoter luciferase reporter activity. The format is cell-based. The conditions noted are these: 24 hours, relative to GSE24.2. As for the experimental part:
FIG. 20. Activity of constructions GSE24.2NLS1-3 and GSE24.2NLS2-3 on the c-myc promoter. The expression vectors for the constructions GSE24.2, GSE24.2N LS1-3 and GSE24.2NLS2-3 were transfected (using lipofectamine) into 293T cells together with the reporter gene of the promoter of c-myc, pXP1, and 24 hours later the luciferase activity was measured using a commercial kit. The values are expressed as relative activity, considering 1 as the value of luciferase with the empty expression vector pCDNA3myc.
With the aim of evaluating biological activity of the constructions containing the signals NLS1-3 and N LS2-3, they were transfected into 293T cells together with the reporter gene of the promoter of c-myc and the luciferase activity activated by both constructions GSE24.2NLS1-3 and GSE24.2NLS2-3 was evaluated in relation to GSE24.2.

For a further experiment, the system named is HeLa cells. Briefly: Internalisation of fluorescein-labelled peptides, confocal fluorescence microscopy. It is filed as cell-based. As for the experimental part: FIG. 21. Transfection of peptides GSE4 and GSE4NLS1 in HeLa cells. Peptides GSE4 and GSE4NLS1 (SEQ ID No. 7) labelled with fluorescein and obtained by chemical synthesis were transfected into HeLa cells using the Proteojuice reagent and viewed in a confocal fluorescence microscope at 9, 24 and 48 hours after transfection.
FIG. 22. Internalisation of peptides GSE4 and GSE4NLS1 in HeLa cells. Peptides GSE4 and GSE4NLS1 (SEQ ID No. 7) labelled with fluorescein and obtained by chemical synthesis were added to the culture medium of HeLa cells and viewed in a confocal fluorescence microscope at 9, 24 and 48 hours after transfection.
Given the ability of sequence NLS1 to contribute to the activity of GSE24.2, a synthetic peptide into which this sequence was placed in the 3′ region of peptide GSE4 was constructed as this was the peptide for which the greatest telomerase activation was obtained. The peptides obtained by chemical synthesis were labelled with fluorescein to facilitate their visualisation in a fluorescence microscope. Two experiments were performed in parallel, in one the peptides were transfected using Proteojuice reagent and in the other they were added directly to the culture medium. […] An important difference observed was that when the peptides were added directly to the culture medium, the peptide entered into a higher number of cells than when Proteojuice was used. The reagent provided greater effectiveness for internalisation but into a small number of cells.

As to “HSGTLDPKVTG (listed as Homo sapiens) [SGSE4, reference compound]”, the “AT cells in which overall damage to DNA is corrected” value in experiment [1] is on record as “not able to correct the damage to DNA”.

“GFINLDKPSNPSSHEVVAWIRRILRVEKTGHSGTLDPKVTGCLIVCIERATRLVKKRKR (GSE24.2NLS1-3; listed as Homo sapiens) [GSE24.2 with NLS1 in the 3′ position]”: the “activation of expression of the promoter of c-myc (luciferase)” value in experiment [2] is given as “more effectively than GSE24.2”.

“GFINLDKPSNPKRKR (GSE4NLS1-3; listed as Homo sapiens)”: the entry into cells entry with HeLa cells (peptide simply added to the culture medium) and in the experiment on HeLa cells (transfected using Proteojuice reagent) was “entered the cells” each time.

B1: GFINLDKPSNPSSHEVVAWIRRILRVEKTGHSGTLDPKVTGCLIVCIERATRLVKKKEKKKSK (peptide, listed as Homo sapiens)
chain: GFINLDKPSNPSSHEVVAWIRRILRVEKTGHSGTLDPKVTGCLIVCIERATRLVKKKEKKKSK
modifications: GSE24.2NLS2-3
notes: GSE24.2 with NLS2 in the 3′ position
Consider B1, for which, in experiment [2], the “activation of expression of the promoter of c-myc (luciferase)” value is “more effectively than GSE24.2”.
